# Data: patent publication US12344621B2, “CGRP antagonist compounds” (Nxera Pharma UK Limited, priority 2019, dated 2025)
# Like-named read-outs stand apart in the source and are kept apart here.
# What was measured:
# [1] = amide bond
# human CGRP receptor = molecular target: T1, human CGRP receptor (Homo sapiens, UniProt O60894+Q16602); assay: cAMP functional assay (HTRF cAMP dynamic-2) in SK-N-MC cells; type: cell-based; details: SK-N-MC cells endogenously expressing human CGRP receptor; challenge with EC80 human CGRP (0.3 nM); functional pKb converted from pIC50 by modified Cheng-Prussoff equation
# T1 construct: SK-N-MC endogenously expressing the human CGRP receptor; endogenous in cells; host or cells: SK-N-MC human neuroblastoma cells
# T1 sequence (Q16602 23-461): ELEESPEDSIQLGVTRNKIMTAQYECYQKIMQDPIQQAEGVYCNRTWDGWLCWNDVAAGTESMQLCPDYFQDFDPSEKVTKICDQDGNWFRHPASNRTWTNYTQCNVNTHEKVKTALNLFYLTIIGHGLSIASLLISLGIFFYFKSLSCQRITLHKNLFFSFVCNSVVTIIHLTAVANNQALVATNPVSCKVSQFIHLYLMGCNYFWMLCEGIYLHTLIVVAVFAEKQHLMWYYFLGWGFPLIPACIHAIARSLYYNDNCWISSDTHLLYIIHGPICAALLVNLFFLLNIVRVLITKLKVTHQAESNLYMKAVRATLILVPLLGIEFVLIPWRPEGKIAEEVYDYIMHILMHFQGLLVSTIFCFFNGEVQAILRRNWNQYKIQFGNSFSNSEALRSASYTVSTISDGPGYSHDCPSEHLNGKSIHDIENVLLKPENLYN
# T1 sequence (O60894 27-148): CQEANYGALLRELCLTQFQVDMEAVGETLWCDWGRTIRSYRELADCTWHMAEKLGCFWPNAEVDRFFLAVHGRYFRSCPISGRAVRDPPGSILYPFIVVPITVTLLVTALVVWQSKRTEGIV
# Method: Biological Activity cAMP Functional Assay
# cAMP production following receptor activation was determined using the Homogeneous Time-Resolved Fluorescence (HTRF) cAMP dynamic-2 assay (Cisbio, France). The human neuroblastoma cell line SK-N-MC endogenously expressing the human CGRP receptor was seeded at a density of 12,500 cells/well in solid walled 96 well half area plates (Costar, Catalog Number 3688, Corning Life Sciences, Germany). After 16 h incubation at 37° C. media was removed and cells were incubated at 37° C. for 30 min in serum free media containing 500 μM IBMX (Tocris, Abingdon, UK, Catalog Number 2845) and increasing concentrations of test antagonist. Following this cells were challenged with an EC80 concentration of human CGRP (0.3 nM) for a further 30 min at 37° C. and then cAMP production was determined as manufacturer's instructions before plates were read on a PheraStar fluorescence plate reader (BMG LabTech, Germany). IC50 values were derived from the inhibition curve. The pIC50 values (where pIC50=−log 10 IC50) were converted to a functional pKb value using a modified Cheng-Prussoff equation where Kd=agonist EC50 and L hot=agonist challenge concentration. The pKb values of certain compounds of the invention are detailed in Table 4.
# [2] = amide bond; remark: listed apart in the source
compound,measurement,setting,value
"Cc1cc(C[C@H]2NC(=O)c3cnc4c(c3)C[C@@]3(C4)C(=O)Nc4ncc(cc43)/C=C/COCCOCCN(C)C2=O)cc2cn[nH]c12 [Example 1-1, (1S,10R,20E)-12-methyl-10-[(7-methyl-1H-indazol-5-yl)methyl]-15,18-dioxa-5,9,12,24,26-pentazapentacyclo[20.5.2.11,4.13,7.025,28]hentriaconta-3,5,7(30),20,22(29),23,25(28)-heptaene-8,11,27-trione]","ring closure, isolated yield","[1]; from CNCCOCCOC/C=C/c1cnc2c(c1)[C@@]1(Cc3cc(C(=O)N[C@H](Cc4cc(C)c5[nH]ncc5c4)C(=O)O)cnc3C1)C(=O)N2, 22-membered ring, HATU/DIEA, DMA, 6.6 mM, 0.25 h",51%
same,Kb,human CGRP receptor,0.251 nM
same,"ring closure, yield of all isomers","[2]; from CNCCOCCOC/C=C/c1cnc2c(c1)[C@@]1(Cc3cc(C(=O)N[C@H](Cc4cc(C)c5[nH]ncc5c4)C(=O)O)cnc3C1)C(=O)N2, HATU, DMA, 6.6 mM, 0.25 h",51%
"Cc1cc(C[C@H]2NC(=O)c3cnc4c(c3)C[C@@]3(C4)C(=O)Nc4ncc(cc43)/C=C/CCCCCCCN(C)C2=O)cc2cn[nH]c12 [Example 1-5, (1S,10R,20E)-12-methyl-10-[(7-methyl-1H-indazol-5-yl)methyl]-5,9,12,24,26-pentazapentacyclo[20.5.2.11,4.13,7.025,28]hentriaconta-3,5,7(30),20,22(29),23,25(28)-heptaene-8,11,27-trione]","ring closure, isolated yield","[1]; from CNCCCCCCC/C=C/c1cnc2c(c1)[C@@]1(Cc3cc(C(=O)N[C@H](Cc4cc(C)c5[nH]ncc5c4)C(=O)O)cnc3C1)C(=O)N2, 22-membered ring, HATU/DIEA, DMF, 3.0 mM",34.8%
same,Kb,human CGRP receptor,0.0126 nM
same,"ring closure, yield of all isomers","[2]; from CNCCCCCCC/C=C/c1cnc2c(c1)[C@@]1(Cc3cc(C(=O)N[C@H](Cc4cc(C)c5[nH]ncc5c4)C(=O)O)cnc3C1)C(=O)N2, HATU, DMF, 3.04 mM",34.8%
"Cc1cc(C[C@H]2OC(=O)c3cnc4c(c3)C[C@@]3(C4)C(=O)Nc4ncc(cc43)/C=C/COCCOCCN(C)C2=O)cc2cn[nH]c12 [Example 4-1, (1S,10R,20E)-12-methyl-10-[(7-methyl-1H-indazol-5-yl)methyl]-9,15,18-trioxa-5,12,24,26-tetrazapentacyclo[20.5.2.11,4.13,7.025,28]hentriaconta-3,5,7(30),20,22(29),23,25(28)-heptaene-8,11,27-trione]","ring closure, isolated yield","[1]; from CNCCOCCOC/C=C/c1cnc2c(c1)[C@@]1(Cc3cc(C(=O)O[C@H](Cc4cc(C)c5[nH]ncc5c4)C(=O)O)cnc3C1)C(=O)N2, 22-membered ring, HATU/DIEA, DMA, 5.0 mM, 0.08 h",62%
same,Kb,human CGRP receptor,0.2 nM
same,"ring closure, yield of all isomers","[2]; from CNCCOCCOC/C=C/c1cnc2c(c1)[C@@]1(Cc3cc(C(=O)O[C@H](Cc4cc(C)c5[nH]ncc5c4)C(=O)O)cnc3C1)C(=O)N2, HATU, DMA, 5.0 mM, 0.08 h",62%
"Cc1cc(C[C@H]2NC(=O)c3cnc4c(c3)C[C@@]3(C4)C(=O)Nc4ncc(cc43)/C=C/COCCCCCN(C)C2=O)cc2cn[nH]c12 [Example 1-6, (1S,10R,20E)-12-methyl-10-[(7-methyl-1H-indazol-5-yl)methyl]-18-oxa-5,9,12,24,26-pentazapentacyclo[20.5.2.11,4.13,7.025,28]hentriaconta-3,5,7(30),20,22(29),23,25(28)-heptaene-8,11,27-trione]","ring closure, isolated yield","[1]; from CNCCCCCOC/C=C/c1cnc2c(c1)[C@@]1(Cc3cc(C(=O)N[C@H](Cc4cc(C)c5[nH]ncc5c4)C(=O)O)cnc3C1)C(=O)N2, 22-membered ring, HATU/DIEA, DMF, 3.7 mM, 0.03 h",58.9%
same,Kb,human CGRP receptor,0.0126 nM
same,"ring closure, yield of all isomers","[2]; from CNCCCCCOC/C=C/c1cnc2c(c1)[C@@]1(Cc3cc(C(=O)N[C@H](Cc4cc(C)c5[nH]ncc5c4)C(=O)O)cnc3C1)C(=O)N2, HATU, DMF, 3.68 mM, 0.03 h",58.9%
"Cc1cc(C[C@H]2NC(=O)N3CCC4(CC3)OC(=O)Nc3ncc(cc34)/C=C/COCCOCCN(C)C2=O)cc2cn[nH]c12 [Example 6-1, (7R,17E)-9-methyl-7-[(7-methyl-1H-indazol-5-yl)methyl]-12,15,25-trioxa-4,6,9,21,23-pentazatetracyclo[17.6.2.21,4.022,26]nonacosa-17,19(27),20,22(26)-tetraene-5,8,24-trione]","ring closure, isolated yield","[1]; from CNCCOCCOC/C=C/c1cnc2c(c1)C1(CCN(C(=O)N[C@H](Cc3cc(C)c4[nH]ncc4c3)C(=O)O)CC1)OC(=O)N2, 21-membered ring, PyAOP/DIEA, DMF, 3.1 mM, 25.0 °C, 0.5 h",45%
same,Kb,human CGRP receptor,0.501 nM
same,"ring closure, yield of all isomers","[2]; from CNCCOCCOC/C=C/c1cnc2c(c1)C1(CCN(C(=O)N[C@H](Cc3cc(C)c4[nH]ncc4c3)C(=O)O)CC1)OC(=O)N2, PyAOP, DMF, 3.08 mM, 25.0 °C, 0.5 h",45%
"Cc1cc(C[C@H]2OC(=O)N3CCC4(CC3)OC(=O)Nc3ncc(cc34)/C=C/COCCOCCN(C)C2=O)cc2cn[nH]c12 [Example 7-1, (7R,17E)-9-methyl-7-[(7-methyl-1H-indazol-5-yl)methyl]-6,12,15,25-tetraoxa-4,9,21,23-tetrazatetracyclo[17.6.2.21,4.022,26]nonacosa-17,19(27),20,22(26)-tetraene-5,8,24-trione]","ring closure, isolated yield","[1]; from CNCCOCCOC/C=C/c1cnc2c(c1)C1(CCN(C(=O)O[C@H](Cc3cc(C)c4[nH]ncc4c3)C(=O)O)CC1)OC(=O)N2, 21-membered ring, PyAOP/DIEA, DMF, 3.8 mM, 0.67 h",50%
same,Kb,human CGRP receptor,1.26 nM
same,"ring closure, yield of all isomers","[2]; from CNCCOCCOC/C=C/c1cnc2c(c1)C1(CCN(C(=O)O[C@H](Cc3cc(C)c4[nH]ncc4c3)C(=O)O)CC1)OC(=O)N2, PyAOP, DMF, 3.76 mM, 0.67 h",50%
